Laboratory results taken from US6169104A, “Di-aryl ethers and their derivatives as anti-cancer agents” (Large Scale Biology Corporation, priority 1998, dated 2001).

Legend:
[1] = system: MDA MB 468 (breast); assay: In vitro cytotoxicity screen, alamar Blue assay; type: cell-based; details: Homo sapiens, 168 h, 7 days post exposure
Description: (§1) Human tumor cell lines were exposed continuously to varying concentrations of test agents, i.e., BTO-956, BTO-964, BTO966 and BTO-967) and the viability of the cells was measured at set time points (1, 3, and 7 days) using the alamar Blue™ assay. […] This fluorescence can be measured with a fluorimeter, whereby the signal is directly proportional to cell number.
(§2) Various tumor cell lines of human origin representing a wide diversity of cancer pheno- and genotypes were exposed in vitro to the agents to evaluate the drug's effective range. Tumor lines screened included MDA MB 231 (breast), MCF-7 (breast), MDA MB 468 (breast), Siha (squamous cell carcinoma), A549 (non-small cell lung), HL-60 (leukemia), Ovcar-3 (ovarian). The test agents were prepared in serial dilutions from 10 mM stock solutions in DMSO yielding a 66-fold dose range of 20 μM, 10 μM, 3 μM, 1 μM and 0.3 μM concentrations. In each case, cells were maintained at 37° C. under 5 percent CO2 in air. All cell lines were incubated in Dulbecco's modified Eagle medium (DMEM) supplemented with 10% heat-inactivated fetal bovine serum and graded doses of BTO-956, 964, 966, or 967. 5-Fluorouracil (5-FU) was included as a positive control in experiments with two of the cell lines. The experiments were conducted in 96-well tissue culture plates (Falcon) with an initial seeding density of 1000 cells per well in 250 μl aliquots. The next day, medium was replaced with 100 μl of drug dilutions in triplicate.
(§3) After a 7 day exposure to the various agents, the alamarBlue dye was diluted to 20% in DMEM, and 100 μl was added to each well. The cells were incubated for 8 hours until obvious color changes indicated sufficient amounts of reduced dye for quantitation. Relative cell number was evaluated by florimetry on a Millipore 2300 CytoFluor fluorescence measurement system. Measurements were taken directly from 96-well plates after excitation at 560 nm with concomitant emission at 590 nm.

[2] = system: MDA MB 231 (breast); assay: In vitro cytotoxicity screen, alamar Blue assay; type: cell-based; details: Homo sapiens, 168 h; MDA MB 231; 7 days post exposure; read-out: IC50
Description: as §1, §2, §3

[3] = system: Siha (squamous cell carcinoma); assay: In vitro cytotoxicity screen, alamar Blue assay; type: cell-based; details: Homo sapiens, 168 h, 7 days post exposure
Description: as §1, §2, §3

[4] = system: A549 (non-small cell lung); assay: In vitro cytotoxicity screen, alamar Blue assay; type: cell-based; details: Homo sapiens, 168 h; A549; 7 days post exposure; read-out: IC50
Description: as §1, §2, §3

[5] = system: Ovcar-3 (ovarian); assay: In vitro cytotoxicity screen, alamar Blue assay; type: cell-based; details: Homo sapiens, 168 h, 7 days post exposure
Description: as §1, §2, §3

[6] = system: MCF-7 (breast); assay: In vitro cytotoxicity screen, alamar Blue assay; type: cell-based; details: Homo sapiens, MCF7, 168 h, 7 days post exposure
Description: as §1, §2, §3

[7] = system: met-1 mouse mammary tumors; assay: In vivo efficacy against met-1 mouse mammary tumors
Description: Mammary fat pads of Balb/c immunodeficient (nude) mice were implanted with 1 mm^3 of mammary tumor tissue. These mammary tumors originated from the met-1 mouse mammary tumor cell line and have been propagated by passaging in vivo. When palpable tumors appeared, animals were subdivided into various treatment groups and treated daily with intraperitoneal injections of control vehicle, BTO-967 (50 mg/kg), or BTO-964 (50 mg/kg). A group of untreated control animals was included in the study, because agents used in the vehicle for these test articles (DMSO/ethanol/CremophorEL/PEG 400, 1: 0.5 : 0.5: 6) were themselves found to have cytotoxic activity. Twice weekly, the volumes of the tumors in each animal in each group were measured to gather information on tumor growth (volume) as a function of type of treatment, dose, and time.

| Compound | IC50 [1] [nM] | IC50 [2] [nM] | IC50 [3] [nM] | IC50 [4] [nM] | IC50 [5] [nM] | IC50 [6] [nM] | response of Met-1 tumors to treatment ([7]; 50 mg/kg daily i.p.) | Tumor Volume (mm^3) ([7]; 50 mg/kg daily intraperitoneal, 4 weeks post initiation of treatment, mean ± SEM, vehicle 1238 ± 170, none 1570 ± 219) |
| --- | --- | --- | --- | --- | --- | --- | --- | --- |
| COc1ccc(Oc2c(I)cc(C=O)cc2I)cc1 [BTO-964, 3,5-Diiodo-4-(4'-methoxyphenoxy)benzadehyde] | 4000 | 2000 | 17000 | > 20000 | 1800 | 2400 | positive response | 876±126 |
| COC(=S)c1cc(I)c(Oc2ccc(OC)cc2)c(I)c1 [BTO-967, methyl 3,5-diiodo-4-(4'-methoxyphenoxy)thiobenzoate] | 1500 | 2000 | 20000 | 5500 | 800 | 1000 |  |  |
